According to patent US20240246042A1, “METHOD FOR EMULSIFICATION USING IONIC FLUX” (Purdue Research Foundation, priority 2023, published 2024):
Where two headings read alike, the source gives them in different places.

Columns and labels:
[1] = Gibbs free energy of ion transfer and ion transfer potentials across the water and DCE phase; assay type: physicochemical
Excerpt: The Gibbs free energy of ion transfer and the ion transfer potentials for relevant ions across the water and DCE phase were studied.

[2] = transfer from water to DCE; cited from earlier work
[3] = assay type: physicochemical; conditions: aqueous phase None; cathode in aqueous, anode in DCE (per FIG. 23C, 24D-F); 5 mA, 5 min
Procedure: E) The cathode was placed in an aqueous phase containing no phase-transfer agent, and the anode was placed in DCE containing 0.1 M [NBu4][Br]. F) The cathode was placed in an aqueous phase containing no phase-transfer agent, and the anode was placed in DCE containing 0.1 M [NHx][ClO4].
All experiments were performed using bi-phasic systems consisting of immiscible solutions, such as 1,2-dichloroethane and water. Before experimentation, a platinum wire (r=1 mm) was sealed within a cell while maintaining an electrical connection. […] A secondary platinum wire (r=1 mm) was then submerged into the aqueous top layer to complete the circuit and allow for current to flow. Upon submersion, a current was then applied across the system using DC power supply. Current was maintained at 5 mA for a total duration of 5 min. Solutions were allowed to rest for an additional 5 minutes before additional experimentation or measurement.
The droplet sizes were measured. In these measurements, the resulting top layer and bottom layer from the prior section were allowed to rest for 5 minutes and were then transferred to a 1 cm glass cuvette. After transfer, the cuvette was inserted into the DLS instrumentation and was allowed to perform dynamic light scatter measurements to determine the size and intensity of the droplets formed during electro-emulsification. […]

[H+] [H^+]
Δφw→DCE^0 (standard ion transfer potential) ([1]; transfer from water to DCE): −627 mV
ΔGw→DCE^0 (standard Gibbs free energy of ion transfer) [2]: 60.5 kJ/mol

CCCCCC[N+](CCCCCC)(CCCCCC)CCCCCC.[O-][Cl+3]([O-])([O-])[O-] [[NHx4][ClO4], tetrahexylammonium perchlorate]
Average Size (d · nm) N = 3 [3]: 3477 nm
Zeta Potential [3]: −6.031 mV

CC[N+](CC)(CC)CC [NEt4^+, tetraethylammonium]
Δφw→DCE^0 (standard ion transfer potential) [1]: −44 mV

Cl [Cl^−]
Δφw→DCE^0 (standard ion transfer potential) ([1]; transfer from water to DCE): −481 mV
ΔGw→DCE^0 (standard Gibbs free energy of ion transfer) [2]: 46.4 kJ/mol

Br [Br^−]
Δφw→DCE^0 (standard ion transfer potential) ([1]; transfer from water to DCE): −399 mV
ΔGw→DCE^0 (standard Gibbs free energy of ion transfer) [2]: 38.5 kJ/mol

[O-][Cl+3]([O-])([O-])O [ClO4^−]
Δφw→DCE^0 (standard ion transfer potential) ([1]; transfer from water to DCE): −178 mV
ΔGw→DCE^0 (standard Gibbs free energy of ion transfer) [2]: 17.2 kJ/mol

CCCC[N+](CCCC)(CCCC)CCCC [NBu4^+, tetrabutylammonium]
Δφw→DCE^0 (standard ion transfer potential) ([1]; transfer from water to DCE): 226 mV

[Na+] [Na^+]
Δφw→DCE^0 (standard ion transfer potential) ([1]; transfer from water to DCE): −610 mV
ΔGw→DCE^0 (standard Gibbs free energy of ion transfer) [2]: 58.9 kJ/mol

[K+] [K^+]
Δφw→DCE^0 (standard ion transfer potential) ([1]; transfer from water to DCE): −548 mV
ΔGw→DCE^0 (standard Gibbs free energy of ion transfer) [2]: 52.9 kJ/mol

F[P-](F)(F)(F)(F)F [PF6^−]
Δφw→DCE^0 (standard ion transfer potential) ([1]; transfer from water to DCE): −90 mV
ΔGw→DCE^0 (standard Gibbs free energy of ion transfer) [2]: 8.7 kJ/mol
